The record followed here is patent publication US20170334899A1, “AMINO-SUBSTITUTED ISOTHIAZOLES” (Bayer Pharma Aktiengesellschaft, priority 2014, published 2017).

Where only a bound is given, the exact number is not on record here.

The target of the experiment is T1, catalytic domain of human Bub1 (amino acids 704-1085) (Homo sapiens, UniProt O43683).
T1 construct: catalytic domain of human Bub1 (amino acids 704-1085); His6 (N); made in house; host or cells: insect cells (Hi5)
T1 sequence (O43683 704-1085): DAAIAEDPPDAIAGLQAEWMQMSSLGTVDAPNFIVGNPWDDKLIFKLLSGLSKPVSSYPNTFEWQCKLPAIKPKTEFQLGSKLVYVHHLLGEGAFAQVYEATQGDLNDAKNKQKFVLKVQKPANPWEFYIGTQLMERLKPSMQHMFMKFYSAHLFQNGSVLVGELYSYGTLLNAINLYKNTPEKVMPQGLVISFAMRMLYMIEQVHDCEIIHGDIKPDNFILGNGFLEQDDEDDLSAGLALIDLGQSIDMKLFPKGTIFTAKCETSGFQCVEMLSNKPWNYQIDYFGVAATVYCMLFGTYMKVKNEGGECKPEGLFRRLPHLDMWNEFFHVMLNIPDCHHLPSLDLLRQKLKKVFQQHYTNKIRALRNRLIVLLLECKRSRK
Nature of the experiment: Bub1 kinase assay (TR-FRET). To be noted: 10 μM ATP, avg, read-out: Bub1 avg (IC50 [mol/l]). The class given is biochemical. The procedure, abridged:
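Readout is the 665/620 nm TR-FRET ratio from anti-phosphoserine antibody, Eu-labelled anti-mouse IgG and streptavidin-XL665, scaled between no-enzyme and uninhibited controls. Reaction: 1 μM biotinylated peptide, 10 μM ATP, 60 min, 22 °C, after 15 min compound preincubation with His6-Bub1 (704-1085, insect-expressed, ~200 ng/ml).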
In general terms: TR-FRET usually uses a lanthanide donor and a delayed reading to cut background.
For `Cc1nsc(Nc2cnc3ccccc3n2)c1C(=O)Nc1cccc(NS(=O)(=O)C2CCCN(C(=O)OCc3ccccc3)C2)c1` (centres unmarked) [Example 291, benzyl 3-{[3-({[3-methyl-5-(quinoxalin-2-ylamino)-1,2-thiazol-4-yl]carbonyl}amino)phenyl]sulfamoyl} piperidine-1-carboxylate], the IC50 is over 20 µM. As for `Cc1nsc(Nc2cnc(C(F)(F)F)cn2)c1C(=O)Nc1ccc(OCCCNCC(F)(F)F)nc1` [Example 292, 3-methyl-N-(6-{3-[(2,2,2-trifluoroethyl)amino]propoxy}pyridin-3-yl)-5-{[5-(trifluoromethyl)pyrazin-2-yl]amino}-1,2-thiazole-4-carboxamide], the IC50 is over 20 µM.

On to `Cc1nsc(Nc2cnc(C(F)(F)F)cn2)c1C(=O)Nc1ccc(OCCCNCC(F)F)nc1` [Example 293, N-(6-{3-[(2,2-difluoroethyl)amino]propoxy}pyridin-3-yl)-3-methyl-5-{[5-(trifluoromethyl)pyrazin-2-yl]amino}-1,2-thiazole-4-carboxamide], for which the IC50 was over 20 µM. For `Cc1nsc(Nc2cnc(C(F)(F)F)cn2)c1C(=O)Nc1ccc(OCCCNCCC(F)(F)F)nc1` [Example 294, 3-methyl-5-{[5-(trifluoromethyl)pyrazin-2-yl]amino}-N-(6-{3-[(3,3,3-trifluoropropyl)amino]propoxy}pyridin-3-yl)-1,2-thiazole-4-carboxamide], the IC50 is over 20 µM.

Turning to `Cc1nsc(Nc2cnc(C(F)(F)F)cn2)c1C(=O)Nc1ccc(OC2CCN(CCF)C2)nc1` (centres unmarked) [Example 295, N-(6-{[1-(2-fluoroethyl)pyrrolidin-3-yl]oxy}pyridin-3-yl)-3-methyl-5-{[5-(trifluoromethyl)pyrazin-2-yl]amino}-1,2-thiazole-4-carboxamide], the IC50 was over 20 µM. The value for `Cc1nsc(Nc2cnc(C(F)(F)F)cn2)c1C(=O)Nc1ccc(OC2CCN(CC(F)F)C2)nc1` (centres unmarked) [Example 296, N-(6-{[1-(2,2-difluoroethyl)pyrrolidin-3-yl]oxy}pyridin-3-yl)-3-methyl-5-{[5-(trifluoromethyl)pyrazin-2-yl]amino}-1,2-thiazole-4-carboxamide] was over 20 µM; that for `Cc1nsc(Nc2cnc(C(F)(F)F)cn2)c1C(=O)Nc1ccc(OC2CCN(CC(F)(F)F)C2)nc1` (centres unmarked) [Example 297, 3-methyl-N-(6-{[1-(2,2,2-trifluoroethyl)pyrrolidin-3-yl]oxy}pyridin-3-yl)-5-{[5-(trifluoromethyl)pyrazin-2-yl]amino}-1,2-thiazole-4-carboxamide] was over 20 µM. On to `Cc1nsc(Nc2cnc(C(F)(F)F)cn2)c1C(=O)Nc1ccc(OC2CCN(CCC(F)(F)F)C2)nc1` (centres unmarked) [Example 298, 3-methyl-5-{[5-(trifluoromethyl)pyrazin-2-yl]amino}-N-(6-{[1-(3,3,3-trifluoropropyl)pyrrolidin-3-yl]oxy}pyridin-3-yl)-1,2-thiazole-4-carboxamide], for which the IC50 was over 20 µM.

As to `Cc1nsc(Nc2cnc(C(F)(F)F)cn2)c1C(=O)Nc1ccc(N(C)C)c(OCCCN(C)CC(F)(F)F)c1` [Example 299, N-[4-(dimethylamino)-3-{3-[methyl(2,2,2-trifluoroethyl)amino]propoxy}phenyl]-3-methyl-5-{[5-(trifluoromethyl)pyrazin-2-yl]amino}-1,2-thiazole-4-carboxamide], the IC50 is over 20 µM. With `Cc1nsc(Nc2cnc(C(F)(F)F)cn2)c1C(=O)Nc1ccc(N(C)C)c(OCCCN(C)CCC(F)(F)F)c1` [Example 300, N-[4-(dimethylamino)-3-{3-[methyl(3,3,3-trifluoropropyl)amino]propoxy}phenyl]-3-methyl-5-{[5-(trifluoromethyl)pyrazin-2-yl]amino}-1,2-thiazole-4-carboxamide], the IC50 was over 20 µM. Take `Cc1nsc(Nc2cnc(C(F)(F)F)cn2)c1C(=O)Nc1ccc(F)c(OCCCN(C)CC(F)F)c1` [Example 301, N-(3-{3-[(2,2-difluoroethyl)(methyl)amino]propoxy}-4-fluorophenyl)-3-methyl-5-{[5-(trifluoromethyl)pyrazin-2-yl]amino}-1,2-thiazole-4-carboxamide]: the IC50 is over 20 µM. Consider `Cc1nsc(Nc2cnc(C(F)(F)F)cn2)c1C(=O)Nc1ccc(F)c(OCCCN(C)CC(F)(F)F)c1` [Example 302, N-(4-fluoro-3-{3-[methyl(2,2,2-trifluoroethyl)amino]propoxy}phenyl)-3-methyl-5-{[5-(trifluoromethyl)pyrazin-2-yl]amino}-1,2-thiazole-4-carboxamide], for which the IC50 was over 20 µM. Take `Cc1nsc(Nc2cnc(C(F)(F)F)cn2)c1C(=O)Nc1ccc(F)c(OCCCN(C)CCC(F)(F)F)c1` [Example 303, N-(4-fluoro-3-{3-[methyl(3,3,3-trifluoropropyl)amino]propoxy}phenyl)-3-methyl-5-{[5-(trifluoromethyl)pyrazin-2-yl]amino}-1,2-thiazole-4-carboxamide]: the IC50 is at least 20 µM. With `Cc1nsc(Nc2cncc(C(F)(F)F)n2)c1C(=O)Nc1ccc(OC2CCN(CCC(F)(F)F)CC2)nc1` [Example 304, 3-methyl-5-{[6-(trifluoromethyl)pyrazin-2-yl]amino}-N-(6-{[1-(3,3,3-trifluoropropyl)piperidin-4-yl]oxy}pyridin-3-yl)-1,2-thiazole-4-carboxamide], the IC50 was over 20 µM. The value for `Cc1nsc(Nc2cnc(C(F)(F)F)cn2)c1C(=O)Nc1ccc(OCCNCC(F)F)nc1` [Example 305, N-(6-{2-[(2,2-difluoroethyl)amino]ethoxy}pyridin-3-yl)-3-methyl-5-{[5-(trifluoromethyl)pyrazin-2-yl]amino}-1,2-thiazole-4-carboxamide] was 19 µM; that for `Cc1nsc(Nc2cnc(C(F)(F)F)cn2)c1C(=O)Nc1ccc(F)c(OCCCNCC(F)(F)F)c1` [Example 306, N-(4-fluoro-3-{3-[(2,2,2-trifluoroethyl)amino]propoxy}phenyl)-3-methyl-5-{[5-(trifluoromethyl)pyrazin-2-yl]amino}-1,2-thiazole-4-carboxamide] was at least 20 µM; that for `Cc1nsc(Nc2cnc(C(F)(F)F)cn2)c1C(=O)Nc1ccc(F)c(OCCCNCCC(F)(F)F)c1` [Example 307, N-(4-fluoro-3-{3-[(3,3,3-trifluoropropyl)amino]propoxy}phenyl)-3-methyl-5-{[5-(trifluoromethyl)pyrazin-2-yl]amino}-1,2-thiazole-4-carboxamide] was at least 20 µM. Under `Cc1nsc(Nc2cnc(C(F)(F)F)cn2)c1C(=O)Nc1ccc(F)c(OCC2CCN(CC(F)F)CC2)c1` [Example 308, N-(3-{[1-(2,2-difluoroethyl)piperidin-4-yl]methoxy}-4-fluorophenyl)-3-methyl-5-{[5-(trifluoromethyl)pyrazin-2-yl]amino}-1,2-thiazole-4-carboxamide] stands at least 20 µM; under `Cc1nsc(Nc2cnc(C(F)(F)F)cn2)c1C(=O)Nc1ccc(F)c(OCC2CCN(CCF)CC2)c1` [Example 309, N-(4-fluoro-3-{[1-(2-fluoroethyl)piperidin-4-yl]methoxy}phenyl)-3-methyl-5-{[5-(trifluoromethyl)pyrazin-2-yl]amino}-1,2-thiazole-4-carboxamide], at least 20 µM.

As to `Cc1nsc(Nc2cnc(C(F)(F)F)cn2)c1C(=O)Nc1ccc(F)c(OCC2CCN(CC(F)(F)F)CC2)c1` [Example 310, N-(4-fluoro-3-{[1-(2,2,2-trifluoroethyl)piperidin-4-yl]methoxy}phenyl)-3-methyl-5-{[5-(trifluoromethyl)pyrazin-2-yl]amino}-1,2-thiazole-4-carboxamide], the IC50 was at least 20 µM.
